{"source": "patent US7531195B2", "about": "“Schisandrin B preparation” (priority 2005, dated 2009)", "key": {"[1]": {"test_system": "Myocardial Mitochondria", "experiment": "Myocardial mitochondrial glutathione antioxidant status, old male and female rats", "assay_type": "in vivo, rat", "settings": "liposome-encapsulated in drinking water, 10 mg/kg daily, 35 days", "experimental": "(§1) Aged male and female rats (˜12 months old) were administered with liposome-encapsulated (−) Schisandrin B in drinking water for 35 days, with the daily dose estimated to be 10 mg/kg.\n(§2) Male/Female adult Sprague-Dawley rats (˜12 months old) were maintained under a 12-h dark/light cycle at about 22° C. and allowed food and water ad libitum. Animals were randomly divided into groups, with at least 5 animals in each. In the pretreatment groups, rats were treated with liposome-encapsulated (−) Schisandrin B in drinking water for 35 days, with the estimated daily dose of 10 mg/kg. Control animals received empty liposomes-containing drinking water. Twenty-four hours following the last dosing, hearts were isolated from control or drug-pretreated rats and then subjected to Langendorff perfusion as described below.\n(§3) Myocardial tissue samples were rinsed with ice-cold isotonic buffer (50 mM Tris, 0.32 M sucrose, 1 mM Na2EDTA, 0.2 mg/ml soybean trypsin inhibitor, 0.2 mg/ml bacitracine, 0.16 mg/ml benzamidine). Tissue homogenates were prepared by homogenizing 0.8 g of myocardial tissue in 8 ml ice-cold isotonic buffer and the homogenates were used for the preparation of mitochondrial fractions by differential centrifugation, as described in Chiu and Ko (2004). The mitochondrial pellets were resuspended in 1.5 ml of isotonic buffer containing 150 μl of 2 mg/ml soybean trypsin inhibitor and constituted the mitochondrial fractions.\nAliquots (500 μl) of mitochondrial fractions were taken for measuring mitochondrial GSH level by HPLC methods, using GSH as standards, respectively, as described (Chiu et al 2002). Aliquots (400 μl) of mitochondrial fractions were mixed with 933 μl Triton X-100 solution (0.3%, v/v, in isotonic buffer) and sonicated for 2 min on ice. The mixtures were then subjected to measurements of mitochondrial glutathione reductase (GRD), Se-glutathione peroxidase (GPX) and glutathione S-transferases (GST) activities by spectrophotometric methods, as described in Chiu et al. (2002)."}, "[2]": {"test_system": "Myocardial Mitochondria", "experiment": "Myocardial mitochondrial ATP generation capacity, old male and female rats", "assay_type": "in vivo, rat", "settings": "liposome-encapsulated in drinking water, 10 mg/kg daily, 35 days", "experimental": "as §1, §2, §3\nMyocardial mitochondrial ATP generation capacity was measured by incubating 200 μl of nucleus-free tissue homogenate with 200 μl of substrate solution (containing 100 mM glutamate and 34 mM malate) and 20 μl ADP (2.3 mM) for 10 min at 37° C., and the ATP level were measured using an assay kit from Sigma Chemical Co. (St. Louis, Mo., USA). LDH activity was spectrophotometrically measured as described (Yim and Ko 1999)."}, "[3]": {"test_system": "H9c2 cells", "experiment": "Cellular GSH level in H9c2 cells with or without menadione challenge", "assay_type": "cell-based, rat", "experimental": "(§4) H9c2 cells, a permanent cell line derived from cardiac myoblasts of rat embryo, have early been characterized as a suitable model of myocardial cells [Hescheler et al. 1991]. H9c2 cells were cultured as monolayers in Dulbecco's modified Eagle's medium (GIBCO BRL) supplemented with 10% (v/v) fetal bovine serum. The medium contained glucose (4.5 g/L) and glutamine (4.5 mM), supplemented with NaHCO3 (17 mM), penicillin (100 IU/ml), and streptomycin (100 μg/ml). Cells were grown under an atmosphere of 5% CO2 in air at 37° C. The medium was replaced by fresh medium every 2 or 3 days. A stock of cells was grown in a 75 cm culture flask and split before confluence at a subcultivation ratio of 1:10. Cells used for experiments were seeded at a density of 3.75×10^4 cells/well on a 12-well culture plate, and the cells were grown for 24 h to about 80% confluence prior to drug treatment.\nCultured H9c2 cells were treated with (−) Schisandrin B, (+) Schisandrin B or (±) Schisandrin B (dissolved in DMSO) at 6.25 μM (0.2% DMSO final concentration) for 16 h. Control cells were given the vehicle (i.e. DMSO) only. Immediately following the drug or vehicle pretreatment, the cells were challenged with menadione (dissolved in ethanol) at 12.5 μM (0.2% ethanol final concentration) for 4 h. The control cells were treated with the medium containing 0.2% ethanol only. After the menadione challenge, the medium was taken for the measurement of LDH activity, an biochemical index of cell injury.\nThe cells were washed twice with 0.5 ml cold phosphate-buffered saline (PBS), An aliquot (200 μl) of 3% sulfonsalicyclic acid was then added, and the mixture was incubate at 4° C. for 10 min. After centrifuging at 300 g for 15 min at 4° C., the supernatant was used for GSH measurement by an enzymatic method of Griffith (1980)."}, "[4]": {"test_system": "Hsp70", "experiment": "Hsp70 expression in H9c2 cells (Western blot)", "assay_type": "cell-based, rat", "settings": "6.25 μM", "experimental": "as §4\nCultured H9c2 cells were treated with (−) Schisandrin B, (+) Schisandrin B or (±) Schisandrin B (dissolved in DMSO) at 6.25 μM (0.2% DMSO final concentration) for increasing periods of time. Control cells were given the vehicle (i.e. DMSO) only.\nImmediately following the drug treatment, the cells were washed twice with 0.5 ml cold PBS and treated with 100 μl lysis buffer containing 20 mM Tris HCl, 3 mM EGTA, 1% Triton X-100, 10% glycerol and 2 mM dithiothreitol, pH 7.5, with freshly added protease inhibitors (1 mM phenylmethylsulfonyl fluoride, 0.1 mM benzamide, 5 μg/ml leupeptin, 5 μg aproptinin and 5 μg/ml pepstain A). The mixture was incubated at 4° C. for 15 min with constant shaking. Then the cells were scraped off from the plate, and the extract was transferred to a microcentrifuge tube for centrifugation at 2,400 g for 3 min at 4° C. The resultant supernatant was used for Hsp analysis. Hsp25 and Hsp70 levels was estimated by Western blot analysis using specific antibodies (anti-Hsp25, catalog #SPA-801; anti-Hsp70, catalog #SPA-812) from StressGen (Vancouver, BC, Canada) following SDS-PAGE analysis cell lysates, using a separating gel of 10% acrylamide as described in Ip et. al. [2001]. Hsp25/27 and Hsp70 (human recombinant proteins from StressGen) and actin (bovine muscle from Sigma) were used as markers for reference. […] All immuno-blots were analyzed by densitometry, and the amounts (arbitrary units) of Hsp were normalized with reference to actin levels (arbitrary units) in the sample."}, "[5]": {"settings": "MENADIONE 12.5 μM for 4 h, drug 6.25 μM for 16 h"}, "[6]": {"settings": "NON-MENADIONE, 6.25 μM for 16 h"}}, "note": "Marks after values point to notes of the source that are not given here."}
{"smiles": "COc1cc2c(c(OC)c1OC)-c1c(cc3c(c1OC)OCO3)CC(C)C(C)C2", "note": "(single isomer, unassigned; (-)) [(−) Sch B, (−) Schisandrin B]", "values": [{"measurement": "GPX", "setting": "[1]; old female rats (~12 months)", "value": "44.6 ± 4.29", "unit": "mU/mg Protein"}, {"measurement": "GRD", "setting": "[1]; old female rats (~12 months)", "value": "5.65 ± 0.65", "unit": "mU/mg protein"}, {"measurement": "GSH", "setting": "[1]; old female rats (~12 months)", "value": "6.80 ± 0.28^b nmol/mg protein"}, {"measurement": "GST", "setting": "[1]; old female rats (~12 months)", "value": "14.0 ± 0.45^b mU/mg protein"}, {"measurement": "GRD, percent increase vs untreated control", "setting": "[1]; old female rats", "value": "(13%)"}, {"measurement": "GSH, percent increase vs untreated control", "setting": "[1]; old female rats", "value": "(31%)"}, {"measurement": "GPX", "setting": "[1]; old male rats (~12 months)", "value": "52.2 ± 0.72^a mU/mg Protein"}, {"measurement": "GRD", "setting": "[1]; old male rats (~12 months)", "value": "3.72 ± 0.29^a mU/mg protein"}, {"measurement": "GSH", "setting": "[1]; old male rats (~12 months)", "value": "4.43 ± 0.09^a nmol/mg protein"}, {"measurement": "GST", "setting": "[1]; old male rats (~12 months)", "value": "17.5 ± 0.76", "unit": "mU/mg protein"}, {"measurement": "GPX, percent increase vs untreated control", "setting": "[1]; old male rats", "value": "(15%)"}, {"measurement": "GRD, percent increase vs untreated control", "setting": "[1]; old male rats", "value": "(39%)"}, {"measurement": "GSH, percent increase vs untreated control", "setting": "[1]; old male rats", "value": "(265%)"}, {"measurement": "ATP generation", "setting": "[2]; old female rats (~12 months)", "value": "4.43 ± 0.10^b μmol/min/mg protein"}, {"measurement": "ATP Generation, percent increase vs untreated control", "setting": "[2]; old female rats", "value": "(48%)"}, {"measurement": "ATP generation", "setting": "[2]; old male rats (~12 months)", "value": "3.75 ± 0.06", "unit": "μmol/min/mg protein"}, {"measurement": "ATP Generation, percent increase vs untreated control", "setting": "[2]; old male rats", "value": "(11%)"}, {"measurement": "GSH Level", "setting": "[3]; [5]", "value": "33.3 ± 1.75", "unit": "nmol/mg protein"}, {"measurement": "GSH Level, percent increase vs menadione control", "setting": "[3]; [5]", "value": "(81%)"}, {"measurement": "GSH Level", "setting": "[3]; [6]", "value": "64.0 ± 2.96", "unit": "nmol/mg protein"}, {"measurement": "GSH Level, percent increase vs non-menadione control", "setting": "[3]; [6]", "value": "(84%)"}, {"measurement": "Hsp 70 Level", "setting": "[4]; 0 h post-dosing (unpretreated control)", "value": "465 ± 14.3", "unit": "AU"}, {"measurement": "Hsp 70 Level", "setting": "[4]; 8 h post-dosing", "value": "486 ± 16.7", "unit": "AU"}, {"measurement": "Hsp 70 Level", "setting": "[4]; 16 h post-dosing", "value": "548 ± 6.67", "unit": "AU"}, {"measurement": "Hsp 70 Level", "setting": "[4]; 24 h post-dosing", "value": "1058 ± 61", "unit": "AU"}, {"measurement": "Hsp 70 Level, percent increase vs unpretreated control (0 h)", "setting": "[4]; 24 h post-dosing", "value": "(128%)"}, {"measurement": "Hsp 70 Level", "setting": "[4]; 48 h post-dosing", "value": "556 ± 32.1", "unit": "AU"}, {"measurement": "time of maximum stimulation of Hsp70 level", "setting": "[4]; post-dosing", "value": 24, "unit": "h"}]}
